Experimental findings from patent US20210187085A1, “PHOSPHOLIPASE A2 RECEPTOR ANTIGENS AND THEIR MEDICAL USE” (The University of Manchester, priority 2017, published 2021) are described below.

“Also recorded” adds a separate entry of the source. Where a SMILES comes first, the peptide text is derived from it. Bridges are numbered along the chain shown (N, C = ends). Where no end group is shown, it is not given here.

Assay [1] relates to anti-PLA2R mouse 20 Ab. The experiment in a line: ProteOn SPR, candidate peptide mouse 20 antibody binding kinetics. The settings on record: peptide immobilised on GLC chip, mouse 20 Ab 5-25 nM; for Ka: Langmuir 1:1.
The test system of assay [2] is anti-PLA2R Mouse 20 Ab. The experiment in a line: Kd 1/s.
The test system of assay [3] is mouse 20 Ab. The experiment in a line: ELISA analysis of peptide epitope library. The format is binding. The settings on record: 1.5 ng of peptide immobilised, absorbance 450 nm. In general terms: ELISA stands for enzyme-linked immunosorbent assay.
Procedure: ELISA 96 well plates (ThermoScientific, 3455) were coated with 100 μL of 1.5 μg/mL peptide in 0.1M NaHCO3 pH 9.5 buffer overnight at 4° C. The solution was removed and wells blocked with 100 μL of superblock (ThermoScientific, 37515) for 1 hour. The solution was again removed and replaced with 100 μL of 2 μg/mL of mouse 20 Ab in superblock containing 0.05% Tween. The wells were then incubated for 2 hours at room temperature with constant shaking. The solutions were removed and washed nine times in PBST and then replaced with 100 μL horseradish peroxidase (HRP) conjugated goat anti-mouse IgG 1:5000 in superblock containing 0.05% Tween. The wells were again incubated for two hours at room temperature with constant shaking. The solutions were removed and washed nine times in PBST. 100 μL tetramethylebenzadine (Sigma, T4444) was added and incubated for 10 minutes at room temperature. 50 μL of sulphuric acid and absorbance measured on a well plate reader at 450 nm. Controls of peptide with secondary Ab and primary and secondary Ab were prepared.
Assay [4] has as its system anti-PLA2R Mouse 20 Ab. Description: Ka 1/Ms.
Assay [5] deals with anti-PLA2R mouse 20 Ab. Description: Slot blot analysis with mouse 20 Ab. The format is binding. The settings on record: for interaction with mouse 20 Ab in slot blot: 205 nm NanoDrop and ponceau S staining. An excerpt: Incorporating the 205 nm NanoDrop and ponceau S staining the assessment of the peptide epitope library was undertaken with the mouse 20 Ab.
Assay [6] concerns human Nottingham patient autoAb. The experiment in a line: PEPperCHIP peptide microarray substitution scan, phase 1. It is filed as binding. The settings on record: Nottingham patient autoAbs.
The subject of assay [7] is human anti-PLA2R autoAbs. The experiment in a line: Slot blot analysis with human anti-PLA2R autoAbs. The settings on record: non-reducing conditions, FIG. 1 D.

As to PIQSESLKK [listing 1 of 2 here], in assay [1], the Kd was approximately 0.1 nM and the Ka came out at 107000 M⁻¹ s⁻¹.
As for `CC[C@H](C)[C@@H]1NC(=O)[C@@H](NC(=O)[C@H](CO)NC(=O)[C@H](CCC(=O)O)NC(=O)[C@H](CO)NC(=O)[C@H](CCC(N)=O)NC(=O)[C@@H](NC(=O)[C@@H](N)C(C)C)[C@@H](C)CC)CSSC[C@@H](C(=O)O)NC(=O)[C@H](CC(N)=O)NC(=O)[C@H](CCC(=O)O)NC(=O)[C@H](CC(C)C)NC(=O)[C@H]([C@@H](C)O)NC(=O)[C@H](CC(C)C)NC(=O)[C@H](C(C)C)NC(=O)[C@H](CO)NC(=O)[C@H](CCCCN)NC(=O)CNC(=O)[C@H](C)NC(=O)[C@H](CCC(N)=O)NC1=O` [20mer] (H-VIQSESCIQAGKSVLTLENC-OH; disulfide 7-20), the “Kd” value in assay [2] is 0.000134 s⁻¹; in assay [1], approximately 0.1 nM. The “association with mouse 20 Ab in ELISA” value in assay [3] was “little to no association”. The “Ka” value in assay [4] and in assay [1] was 1.56e+06 M⁻¹ s⁻¹ throughout. The “interaction with mouse 20 Ab in slot blot” value in assay [5] (peptide epitope library) was “little to no association”. For the same compound, the “autoAb binding in substitution scan (in words)” value in assay [6] (listed as Peptide platform 2c) and in assay [6] (listed as Peptide platform 3c) was “successfully interact; also recorded: successfully bound” throughout.
For PIDSESLKK [listing 1 of 2 here], in assay [2], the “Kd” value was 0.000143 s⁻¹. Also, the “Ka” value in assay [4] amounted to 1.79e+06 M⁻¹ s⁻¹.
For VIQSESLKK [listing 1 of 2 here], in assay [1], the Kd was approximately 0.1 nM and the Ka came out at 2.27e+06 M⁻¹ s⁻¹.
For VIDSESLKK [listing 1 of 2 here] the same measures were approximately 0.1 nM and 1.86e+06 M⁻¹ s⁻¹.
SVLTLENCK [Peptide 2]: the “Kd” value in assay [2] was 5.32e-05 s⁻¹; in assay [1] it was approximately 0.1 nM. In addition, the “Ka” value in assay [4] and in assay [1] was 1.43e+06 M⁻¹ s⁻¹ each time.
Take PIQSESLKK [listing 2 of 2 here]: in assay [2], the “Kd” value was 7.5e-05 s⁻¹. For the same compound, the “Ka” value in assay [4] was determined as 107000 M⁻¹ s⁻¹.
Regarding PIDSESLKK [listing 2 of 2 here], in assay [1], the Kd was approximately 0.1 nM and the Ka was 1.79e+06 M⁻¹ s⁻¹.
Regarding VIQSESLKK [listing 2 of 2 here], the “Kd” value in assay [2] amounted to 0.000136 s⁻¹. In addition, in assay [4], the “Ka” value was 2.27e+06 M⁻¹ s⁻¹.
As for VIDSESLKK [listing 2 of 2 here], in assay [2], the “Kd” value was determined as 0.00014 s⁻¹. For the same compound, the “Ka” value in assay [4] came out at 1.86e+06 M⁻¹ s⁻¹.
For the compound “Head to Tail cyclic: head to tail cyclic 28mer (SEQ ID NO: 74) (KGCFVIQSESLKKSIQAGKSVLTLENCK; head-to-tail cyclisation) [listing 1 of 2 here]”, the “association with mouse 20 Ab in ELISA” value in assay [3] is “displayed association”. Also, the “slot blot staining with human anti-PLA2R autoAbs” value in assay [7] is reported as “stained positive”. Moreover, the “slot blot staining with anti-PLA2R mouse 20 Ab” value in assay [5] (non-reducing conditions, FIG. 1 D) was “stained positive”. In addition, the “slot blot intensity of interaction with mouse 20 Ab” value in assay [5] (peptide epitope library) was “highest intensity”. Also, the “interaction with mouse 20 Ab in slot blot” value in assay [5] (peptide epitope library, listed as head to tail 28mer) is “found to interact; also recorded: displayed association”. In assay [1], this compound had a Kd of approximately 0.1 nM and a Ka of 1.55e+06 M⁻¹ s⁻¹.
For “Head to Tail cyclic: head to tail cyclic 28mer (SEQ ID NO: 74) (KGCFVIQSESLKKSIQAGKSVLTLENCK; head-to-tail cyclisation) [listing 2 of 2 here]”, the “Kd” value in assay [2] turned out to be 9.4e-05 s⁻¹. The “Ka” value in assay [4] was determined as 1.55e+06 M⁻¹ s⁻¹.
